Assay results from patent US20040180812A1, “Methods of treating and preventing proliferative disease” (Technology Center, priority 2002, published 2004).
Where two headings read alike, the source gives them in different places.

How the values were obtained:
U-87 glioblastoma cells [1] = test: In-vitro determination of proliferation (Coulter counter); type: cell-based, human
Procedure: (§1) U-87 glioblastoma cells and A-549 non-small cell lung cancer cells (American Type Culture Collection) were maintained in alpha MEM (Sigma) with 10% fetal bovine serum (Atlanta Biologicals). Tumor cell lines were expanded as a monolayer culture by serial passage on tissue culture plates in tumor media (alpha MEM with 10% fetal bovine serum).
(§2) The cell doubling time was determined for both U-87 and A-549 tumor cells. A total of 1×10^6 Cells from resting culture were seeded in 50 mm flasks with medium and allowed to adhere for approximately Three hours. Clopidogrel and Aggrenox™ were then added in concentrations of 25, 50, or 100 μM. After further incubation for four hours, controls and treated dishes were trypsinized and counted in a Coulter Counter ZM. This count served as the starting count for proliferation and confirmed similar cell adhesion in each series. Cells were then counted every 24 hours for a total of 96 hours.

[2] = test system: A-549 non-small cell lung cancer cells; test: as above; type: cell-based
Procedure: as §1, §2

U-87 glioblastoma cells [3] = test: Clonogenic assay; type: cell-based, human; details: 25, 50, 100 μM, four hours exposure
Procedure: as §1
(§3) The effect of clopidogrel and Aggrenox™ on U-87 and A-549 survival was determined by preparing single cell suspensions from each cell culture. The cells were subjected to three concentrations of each drug (25, 50, or 100 μM) for four hours in medium. The suspensions were serially diluted with medium. The cells were then seeded in triplicate in 50 mm flasks. After 6 to 14 days of incubation, the cultures were stained with crystal violet and counted.

[4] = test system: A-549 non-small cell lung cancer cells; test: Clonogenic assay; type: cell-based; details: 25, 50, 100 μM, four hours exposure
Procedure: as §1, §3

U-87 tumor = test system: U-87 tumor
Procedure: In order to evaluate the effect of clopidogrel on U-87 tumor growth rate, U-87 cell suspension was injected subcutaneously into the right hind limb (5×10^5 cells in 50 μl PBS) of athymic NCR NUM mice (Taconic Farms). The clopidogrel was added to the drinking water in concentrations of 0.135 (low), 0.180 (intermediate) or 0.225 mg/ml (high). This was equivalent to an oral dose of approximately 15, 20, or 25 mg/kg/day. Mice were not pretreated prior to tumor implantation. The mice were randomized to five groups (control, low, intermediate and high concentration and non-solubilized drug) with five mice per group.
U-87 tumors were allowed to grow for approximately 10-14 days until reaching an approximate volume of 40-85 mm^3, before treatment. Tumor volume was determined daily by direct measurement with calipers and calculated by the formula [(smallest diameter^2×widest diameter)/2]. Daily weights were obtained.
Polynomial regression lines were fit to the data for each individual mouse for 20-24 days. Means were taken at two-day intervals for mice in each group.
U-87 cells were inoculated into the right hind limb of athymic NCR NUM mice. […] U-87 tumors were allowed to grow for approximately 10-14 days until reaching an approximate volume of 40-85 mm^3, before treatment. Clopidogrel was added to the drinking water in concentrations of 0.135 (low), 0.180 (intermediate) or 0.225 mg/ml (high). This was equivalent to an oral dose of approximately 15, 20, or 25 mg/kg/day. Tumor dimensions and animal weights were taken daily.

[5] = test system: human U87 gliobastoma tumor xenografts
Procedure: Glioblastoma cell line U-87 (ATCC) was cultured in 150 cm^2 polystyrene flasks (Fisher cat. no. 355001) in Alpha MEM media (Cellgro® cat. no. 15-012-CV) supplemented with 10% FBS, 1× non essential amino acids (Cellgro® cat. no. 25-025-Cl), 0.1% glucose (Sigma® cat. no. G8644), 2 mM L-glutamine (Gibco BRL® cat. no. 25030-081) and 0.2% sodium bicarbonate (Cellgro® cat. no. 25-035-Cl) to sub-confluence (80%). Prior to cell dissociation, the culture was washed once with 1×PBS (Bio Whittaker® cat. no. 16-006Y) and dissociated with trypsin free Cellstripper™ (Cellgro® cat. no. 25-056-Cl). Suspended cells were counted using the model Z1 Coulter® particle counter.
Male mice (NCR-NU-M, Taconic®), 3-5 weeks old, were anesthetized with 0.2 mls Nembutal® (10 mg/ml in sterile water) subcutaneous in the back of the neck. Once anesthetized, each mouse was injected subcutaneous with 5×10^5 cells/0.2 ml in the right hind flank. Tumors were allowed to grow to 60 mm^3 prior to treatment. Tumor volume was calculated by the following formula from orthogonal measurements using Fisher Scientific® electronic digital calipers. [formula]
Tumors were allowed to grow to a final volume of 2000 mm^3 where upon the treatment was terminated and the mice were sacrificed using a CO2 gas chamber.
Treatment groups were evaluated for tumor growth delay. A 60 mg/kg/day solution of Plavix® (clopidogrel bisulfate) was prepared by crushing and dissolving 75 mg tablets in water (pH 1.0). The solute was filtered through a Nalgene® filtration unit (cat. no. 126-0020) and the pH raised to 1.78. Mice were gavaged daily with 0.2 ml solution of Plavix® and vehicle controls were gavaged daily with 0.2 ml acidified water pH 1.78.
Prior to X-ray irradiation, mice were anesthetized with […] Ketamine HCl (Ketaset III®, Fort Dodge®) and […] Acepromazine Maleate (Phoenix pharmaceutical, Inc.) by subcutaneous injection in the back to the neck. Tumors on the right hind leg were exposed to 7.5 Gy three times on alternate days for one week using a Pantek X-ray irradiator.

[6] = highest concentration 100 μM, counted every 24 h for 96 h

COC(=O)[C@H](c1ccccc1Cl)N1CCc2sccc2C1 [clopidogrel, clopidogrel bisulfate]
proliferation of U-87 cells (U-87 glioblastoma cells [1]; [6]): considerably inhibited | cell proliferation (U-87) (U-87 glioblastoma cells [1]; lowest concentration (25 μM)): did not significantly affect cell proliferation | A-549 cell proliferation [2, 6]: even more drastically inhibited | cell proliferation (A-549) ([2]; lowest concentration (25 μM)): did not significantly affect cell proliferation | U-87 clonogenic cell survival compared with Aggrenox results (U-87 glioblastoma cells [3]): exaggerated | A-549 clonogenic cell survival compared with Aggrenox results [4]: exaggerated | dose response of tumor growth delay (U-87 tumor; 0.135, 0.180, 0.225 mg/ml in drinking water): A dose response was noted | tumor growth delay (U-87 tumor; highest concentration 0.225 mg/ml in drinking water, approx. 25 mg/kg/day oral): much more dramatic | tumor growth delay (U-87 tumor; lowest concentration 0.135 mg/ml in drinking water, approx. 15 mg/kg/day oral): small growth delay | Tumor growth Delay (Experiment 1) ([5]; Plavix alone): 5 days | Tumor growth Delay (Experiment 2) ([5]; Plavix alone): 5 days | tumor growth delay (TGD) ([5]; Plavix alone, 60 mg/kg/day gavage): 5 days | Tumor growth Delay (Experiment 2) ([5]; Radiation plus Plavix): 16 days | tumor growth delay (TGD) ([5]; radiation (7.5 Gy three times) and Plavix 60 mg/kg/day combined): 16 days | TGD more than radiation alone ([5]; radiation and Plavix combined versus radiation alone): 4 days
